# Patent USRE38551E1, “Anticonvulsant enantiomeric amino acid derivatives” (priority 1996, dated 2004)
# Experiments:
# motor impairment = motor impairment (ataxia, gait, stance) observation, rats (po); type: in vivo; settings: rat, po, at time of peak effect
# Text: (§1) Compounds were screened for anticonvulsant activity in both male albino Carthworth Farms No. 1 mice (ip route) and male albino Sprague Dawley rats [oral (po) route]. Activity was established using the electrical (maximal electroshock or MES) test. In the MES test, a drop of electrolyte solution with anesthetic (0.5% butacaine hemisulfate in 0.9% sodium chloride) was used in the eyes of the animals prior to positioning the corneal electrodes and delivery of current. A 60 cycle alternating current was administered for 0.2 sec. in both species, 50 mA in mice and 150 mA in rats. Protection endpoints were defined as the abolition of the hind limb tonic extensor component of the induced seizure. In mice, effects of compounds on forced spontaneous motor activity were determined using the rotorod test. […] Normally under these conditions, mice maintain their balance almost indefinitely. In rats, motor impairment is assessed by observing for overt evidence of ataxia, abnormal gait and stance, and/or loss of placing response and muscle tone. In the mouse identification screening study all compounds were given at three dose levels (30, 100, 300 mg/kg) and two time periods (0.5 hours, 4 hours). Typically, in the MES seizures test one animal was tested at 30 mg/kg and 300 mg/kg, and three animals at 100 mg/kg. In the rotored toxicity test four animals were tested at 30 mg/kg, and 300 mg/kg, and eight animals at 100 mg/kg.
# (§2) The quantitative determination of the median effective (ED50) and toxic doses (TD50) was conducted at previously calculated times of peak effect. Groups of at least eight animals were tested using different doses of test compound until at least two points wee determined between 100 and 0% protection and minimal motor impairment. The dose of candidate substance required to produce the defined end-point in 50% of the animals in each test and the 95% confidence interval was calculated.
# [1] = test system: motor impairment (rotorod test); experiment: rotorod neurologic toxicity test, mice (ip); type: in vivo; settings: for tox, TD50: mice, ip, rotorod test, at time of peak effect
# Text: as §1, with “A 60 cycle alternating current was administered for 0.2 sec. in both species, 50 mA in mice and 150 mA in rats.” left out
# as §2
# [2] = test system: maximal electroshock (MES) induced seizure; experiment: maximal electroshock (MES) seizure test, rats (po); type: in vivo; settings: for ED50 / PI protective index (TD50/MES ED50) / MES, ED50: po; for Ratio to MES: oral, Neurotox/MES (Table 6)
# Text: as §1, with “A 60 cycle alternating current was administered for 0.2 sec. in both species, 50 mA in mice and 150 mA in rats.” left out
# (§3) The quantitative determination of the median effective (ED50) and toxic doses (TD50) was conducted at previously calculated times of peak effect. Groups of at least eight animals were tested using different doses of test compound until at least two points wee determined between 100 and 0% protection and minimal motor impairment.
# [3] = motor impairment (ataxia, gait, stance) observation, rats (po); type: in vivo; settings: male, Sprague Dawley, in vivo, rat; for TD50: po, at time of peak effect, read-out: tox, TD50
# Text: as §1, §2
# [4] = test system: maximal electroshock (MES) induced seizure; experiment: maximal electroshock (MES) seizure test, mice (ip); type: in vivo; settings: for ED50: Mus musculus; for ED50 / PI protective index (TD50/MES ED50) / MES, ED50: ip; for PI protective index (TD50/MES ED50) / MES, ED50: mice; for MES, ED50: at time of peak effect (hours in brackets); for Ratio to MES: i.p., Neurotox/MES (Table 6)
# Text: as §1, with “A 60 cycle alternating current was administered for 0.2 sec. in both species, 50 mA in mice and 150 mA in rats.” left out
# as §3
# [5] = rotorod neurologic toxicity test, mice (ip); type: in vivo; settings: male, ip; for TD50: Carthworth Farms No. 1, mouse, in vivo, mice, rotorod test, at time of peak effect, read-out: tox, TD50
# Text: as §1, with “A 60 cycle alternating current was administered for 0.2 sec. in both species, 50 mA in mice and 150 mA in rats.” left out
# as §2
# hexobarbital sleep time = hexobarbital sleep time test; type: in vivo; settings: rats, 5 daily doses of 48 mg/kg
# Experimental: All rats subjected to the 5-day tolerance studies were maintained in their home cage for 24 hours and then subjected to the hexobarbital sleep time test (day 6). Each rat in each of the 3 groups was given 100 mg/kg of hexobarbital (i.p.) and the sleep time measured to the nearest minute. The mean sleep time and S.E. for each group were calculated.
# liver microsomal system = experiment: 7-day liver microsomal studies; type: in vivo, rats
# Experimental: Two of the three groups of animals subjected to the hexobarbital sleep time test (chronically treated and vehicle control groups) were continued on their respective original treatment regimen for two days (days 6 and 7) and 24 hours later (day 8) subjected to liver microsomal studies. The rats were decapitated and the livers perfused with 0.9% sodium chloride solution. The livers were removed, weighed, and homogenized in 0.25M sucrose. Microsomes were prepared and their drug metabolizing capabilities (microsomal protein yield; cytochrome P-450 concentration; p-nitroanisole O-demethylase and NADPH cytochrome c reductase activities; norbenzphetamine MI complex formation; and glucuronyl transferase, erythromycin demethylase, and ethylmorphine demethylase activities) measured (Arch. Biochem. Biophys. 143: 318-329, 1971).
# [6] = test system: maximal electroshock (MES) induced seizure; experiment: 5-day chronic treatment tolerance study (MES test); type: in vivo; settings: rats, 5 daily doses of 48 mg/kg
# Experimental: Compound C, i.e., N-acetyl-D, L-phenylglycine N-benzylamide was subjected to 5-day chronic treatment on anticonvulsant activity (maximal electroshock). 3 groups of 8 animals each were treated as follows. One group was given the MES ED50 of the test drug for 5 days; the second group was given the requisite volume of the vehicle (0.04 ml/10 g body wt.) for 4 days and a single dose (MES ED50) of the test drug on day 5; and the third group was given the requisite volume of the vehicle daily for 5 days. At the time of peak effect of the candidate substance on day 5, all groups were subjected to the MES test and the number of animals protected recorded. Seizure components of the unprotected animals were timed to the nearest 10th of a second and the extensor/flexor (E/F) ratio, S.E., and p value determined. Since extensor duration decreases and flexor duration increases as a maximal seizure is attenuated, the E/F ratio provides a measure of seizure severity.
# liver = liver toxicity evaluation of D-furyl derivative, oral gavage to rats; type: in vivo
# Experimental: Compound C, i.e., D-(−)-α-acetamido-N-benzyl-2-furanacetylamide was evaluated for liver toxicity using the procedures described hereinabove. More specifically, various dosages such as 25 mg/kg, 100 mg/kg, 500 mg/kg of the drug was administered by oral gavage to rats for a set period of time. The rats were housed separately. The rats were periodically viewed for mortality and moribundity. At the termination of the study, the surviving rats were anesthetized, and exsanguinated under anesthesia.
# [7] = rat, at time of peak effect, read-out: MES, ED50
# [8] = liver microsomes, rats, p.o., 48 mg/kg, Treated 7 Days
# [9] = rats, p.o., 48 mg/kg, Treated 7 Days
compound,measurement,setting,value
"COCC(NC(C)=O)C(=O)NCc1ccccc1 (racemic) [compound 9, N-Benzyl 2-Acetamido-3-methoxypropionamide(racemic mixture)]","tox, TD50",motor impairment,386.8 [1] mg/kg
"COC[C@@H](NC(C)=O)C(=O)NCc1ccc(F)cc1 [Ex. 4, (R)-N-(4-Fluorobenzyl)2-Acetamido-3-Methoxypropanamide]","tox, TD50",[1],27.8 [0.25] mg/kg
same,ED50,[2]; [7],2.6 mg/kg
same,TD50,[3],125 to 250 mg/kg
same,ED50,"[4]; read-out: MES, ED50",4.2 mg/kg
same,PI protective index (TD50/MES ED50),[4],6.6
same,melting point,,144 to 145 °C
"CC(=O)N[C@H](C)C(=O)NCc1ccccc1 [compound 2, N-Acetyl-D-alanine-N′-benzylamide]","tox, TD50",[1],2.14 [0.5] mg/kg
same,PI protective index (TD50/MES ED50),[2]; rat,>35.2
same,"MES, ED50","[2]; rat, at time of peak effect",28.4 [4] mg/kg
same,PI protective index (TD50/MES ED50),[4],3.9
same,"MES, ED50",[4],54.8 [0.5] mg/kg
"COC[C@H](NC(C)=O)C(=O)NCc1ccccc1 [compound 11, (S)-N-Benzyl 2-Acetamido-3-methoxypropionamide]",TD50,[5],> 300 mg/kg
same,ED50,[2]; [7],> 30 mg/kg
same,TD50,[3],> 30 mg/kg
same,ED50,"[4]; read-out: MES, ED50",100 to 300 mg/kg
"CC(=O)NC(C(=O)NCc1ccccc1)c1ccccc1 (racemic) [compound 13, N-Acetyl-D,L-phenylglycine-N-benzylamide]",ED50,"[5]; Carthworth Farms No. 1, in vivo, mouse, i.p., rotorod test at peak effect (Table 6), read-out: MOUSE ED50 Neurotox",96.9 mg/kg
same,TD50,[5],96.9 mg/kg
same,effect of chronic treatment on hexobarbital sleep time,hexobarbital sleep time,does not affect
same,ED50,"[2]; Rattus norvegicus, read-out: RAT anticonvulsant ED50 MES",48.3 mg/kg
same,ED50,"[2]; Rattus norvegicus, Rats, p.o., TPE 4 hrs (Table 4 head), read-out: ED50",48 mg/kg
same,Ratio to MES,[2]; rat,20.7
same,PI protective index (TD50/MES ED50),[2]; rat,>20.7
same,ED50,[2]; [7],48.3 mg/kg
same,Cytochrome P-450,liver microsomal system; [8],0.71 ± 0.06 nmol/mg
same,Erythromycin demethylase,liver microsomal system; [8],0.64 ± 0.07 nmol/mg/min
same,Ethylmorphine demethylase,liver microsomal system; [8],6.75 ± 0.37 nmol/mg/min
same,Glucoronyl Transferase,liver microsomal system; [8],9.77 ± 0.23 nmol/mg/min
same,NADPH Cytochrome c reductase,liver microsomal system; [8],160.3 ± 5.2 nmol/mg/min
same,Norbenzphetamine MI Complex,liver microsomal system; [8],0.023 ± 0.003 nmol/mg/min
same,Total Protein,liver microsomal system; [8],31.7 ± 1.4 mg
same,p-nitroanisole O-demethylase,liver microsomal system; [8],0.82 ± 0.12 nmol/mg/min
same,Liver Pathology Report,"liver microsomal system; rat, oral, 48 mg/kg/day × 7 days",liver enzyme induction
same,Safety Ratio daily dose; MES,"liver microsomal system; rat, oral, 48 mg/kg/day × 7 days vs oral MES ED50",−1
same,induction of liver microsomal enzyme systems,"liver microsomal system; rats, chronic administration, 48 mg/kg, 7 days",induces some liver microsomal enzyme systems
same,Body Weight,liver microsomal system; [9],146.3 ± 3.8 g
same,Liver Weight,liver microsomal system; [9],8.54 ± 0.26 g
same,effect of chronic treatment on anticonvulsant activity,[6],does not affect
same,ED50,"[3]; oral (Table 6), read-out: RAT ED50 Neurotox",> 1000 mg/kg
same,TD50,[3],> 1000 mg/kg
same,ED50,"[4]; read-out: MES, ED50",20.3 mg/kg
same,ED50,[4]; read-out: MOUSE anticonvulsant dose ED50 MES,20.3 mg/kg
same,PI protective index (TD50/MES ED50),[4],4.77
same,Ratio to MES,[4]; mouse,4.8
"CC(=O)N[C@@H](C)C(=O)NCc1ccccc1 [compound 3, N-Acetyl-L-alanine-N′-benzylamide]","tox, TD50",[1],841 [0.5] mg/kg
same,PI protective index (TD50/MES ED50),[4],1.5
same,"MES, ED50",[4],548 [0.5] mg/kg
"CC(=O)N[C@@H](C(=O)NCc1ccccc1)c1ccco1 [compound 6, (D)-(−)α-Acetamido-N-benzyl-2-furanacetamide]","tox, TD50",[1],23.8 mg/kg
same,MOUSE ED50 Neurotox,"[1]; mouse, i.p., rotorod test at peak effect (Table 6)",23.8 mg/kg
same,RAT anticonvulsant ED50 MES,"[2]; rat, oral (Table 6)",1.97 mg/kg
same,Ratio to MES,[2]; rat,175
same,Safety Ratio daily dose; MES,"liver; rat, oral, 25 mg/kg/day × 30 days vs oral MES ED50",12.7
same,safety ratio for histologic signs of liver toxicity (hepatocellular necrosis),liver; rats,12.7
same,hepatocellular necrosis,"liver; rats, 100 and 25 mg/kg, treated for 13 weeks",hepatocellular necrosis was evident
same,PI protective index (TD50/MES ED50),[4],>.2
same,"MES, ED50",[4],3.3 mg/kg
same,MOUSE anticonvulsant dose ED50 MES,"[4]; mouse, i.p. (Table 6)",3.3 mg/kg
same,Ratio to MES,[4]; mouse,7.2
"CC(=O)NC(CO)C(=O)NCc1ccccc1 (stereo not shown) [compound 8, N-Benzyl 2-Acetamidohydracrylamide]",TD50,[5],> 300 mg/kg
same,ED50,"[4]; read-out: MES, ED50",100 to 300 mg/kg
same,melting point,,201 to 203 °C
"COC[C@@H](NC(C)=O)C(=O)NCc1cccc(F)c1 [Ex. 3, R-N-(3-Fluorobenzyl)2-Acetamide-3-Methoxypropionamide]","tox, TD50",[1],46.3 [0.25] mg/kg
same,PI protective index (TD50/MES ED50),[2]; rat,>57.7
same,"MES, ED50","[2]; rat, at time of peak effect",6.9 [0.5] mg/kg
same,"tox, TD50",motor impairment,>396 [0.5] mg/kg
same,PI protective index (TD50/MES ED50),[4],6.7
same,"MES, ED50",[4],6.9 [0.25] mg/kg
"CC(=O)N[C@H](CO)C(=O)NCc1ccccc1 [compound 12, (R)-N-Benzyl 2-Acetamidohydracylamide]","tox, TD50",[1],>500 [2] mg/kg
same,PI protective index (TD50/MES ED50),[4],>9.4
same,"MES, ED50",[4],53.4 [2] mg/kg
"COC(NC(C)=O)C(=O)NCc1ccccc1 (racemic) [compound 4, D,L-2-Acetamido-N-benzyl-2-methoxyacetamide]","MES, ED50",[4],98.30 mg/kg
"CC(=O)N[C@H](C(=O)NCc1ccccc1)c1ccco1 [compound 7, (L)-(+)-α-Acetamido-N-benzyl-2-furanacetamide]","tox, TD50",[1],>200 mg/kg
same,"MES, ED50",[4],>25. mg/kg
"CC(=O)NC(C(=O)NCc1ccccc1)c1ccco1 (stereo not drawn) [compound 5, (D,L)-α-Acetamido-N-benzyl-2-furanacetamide]","tox, TD50",[1],˜40 mg/kg
same,PI protective index (TD50/MES ED50),[4],>3.9
same,"MES, ED50",[4],10.3 mg/kg
